Reference: patent US20050215543A1, “Methods of treating HIV infection” (priority 2004, published 2005)

What was measured:
[1] = system: HIV-1 Bal; experiment: Drug susceptibility assay, PM-1 cells infected with HIV-1 Bal, p24 assay readout (combinations with CCR5 inhibitors); assay type: cell-based; conditions: for Combination Indices at % HIV Inhibition (Confidence Interval) 50%: 50% HIV inhibition; for Combination Indices at % HIV Inhibition (Confidence Interval) 50% / Combination Indices at % HIV Inhibition (Confidence Interval) 75% / Combination Indices at % HIV Inhibition (Confidence Interval) 90% / Overall Result: PM-1/HIV-1 Bal; for Combination Indices at % HIV Inhibition (Confidence Interval) 50% / Combination Indices at % HIV Inhibition (Confidence Interval) 75% / Combination Indices at % HIV Inhibition (Confidence Interval) 90%: p24, 95% CI in parenthesis; for Combination Indices at % HIV Inhibition (Confidence Interval) 75%: 75% HIV inhibition; for Combination Indices at % HIV Inhibition (Confidence Interval) 90%: 90% HIV inhibition; for EC50: single drug, PM-1 cells, HIV-1 Bal, MOI 0.005, 6 days, p24 assay (CCR5 inhibitors); for Overall Result: two-drug combination with Compound 1, all ratios and effect levels, p24 assay
Protocol: (§1) Virus and cell lines. The T-cell lines, MT-2 and PM-1 were obtained through the AIDS Research and Reference Reagent Program, NIAID, and were contributed by Dr. D. Richman and Dr. R. Gallo, respectively. Both cell lines were cultured in RPMI 1640 medium supplemented with 10% fetal bovine serum, 2 mM L-glutamine and sub-cultured twice a week. The LAI strain of HIV-1 was obtained from the Fred Hutchinson Cancer Research Center, and the Bal strain was from NIH. Both virus stocks were amplified and titered in MT-2 cells (LAI) and PM-1 cells (Bal) using a virus infectivity assay.
(§2) Drug Susceptibility and Cytotoxicity Assays. For drug susceptibility assays, MT-2 cells were infected with HIV-1 LAI (or PM-1 cells with HIV-1 Bal) at an MOI of 0.005, and seeded into 96-well microtiter plates (0.1×10^6 cells/ml) containing serial dilutions of test compounds. […] Each drug ratio consisted of an array of 3-fold serial dilutions, and was performed in quadruplicate. The plates were incubated at 37° C./5% CO2. The MT-2 cells infected with HIV-1 LAI were incubated for 5 days. On day-five post-infection, 20 μl from each well was harvested and quantitated by a reverse transcriptase (RT) assay, or in samples involving non-nucleoside RT inhibitors, an MTS assay. The PM-1 cells infected with HIV-1 Bal and used for studying the combinations with CCR5 inhibitors were incubated for six days. On day-six post-infection, 20 μl from each well was harvested, 20- and 50-fold diluted and quantitated by p24 assay. Cytotoxicity assays were performed using uninfected cells, exposed to the same drug combinations, and incubated for six days. Cell viability was determined by an XTT assay. The CC50 values were calculated by using the exponential form of the median effect equation as mentioned below for calculation of EC50.
(§3) Analysis of Drug Combination Effects. For determination of CI values, drugs were diluted in a fixed ratio and multiple ratios were analyzed. The drug serial dilutions spanned a range of concentrations near the EC50 value of each compound, so that equivalent antiviral activities could be compared. Concentration-response curves were estimated for each individual drug and every combination using the median-effect equation. The equation was fit using a nonlinear regression routine (Proc Nlin) in PC SAS version 8.01 (SAS Institute Inc., SAS Version 8.01, Cary, N.C.: SAS Institute Inc., 1990).
(§4) In this equation, Fa stands for “fraction affected,” and represents the fraction of the viral load that has been inactivated. […] ED50 is drug concentration that is expected to reduce the amount of virus by 50%, and m is a parameter that reflects the slope of the concentration-response curve.
(§5) To assess antiviral effects of different drug combination treatments, combination indices (CIs) were calculated according to Chou and Rideout. The combination index was computed as CI=[D]1/[Dm]1+[D]2/[Dm]2
(§6) In this equation [Dm]1 and [Dm]2 are the concentrations of drugs that would individually produce a specific level of effect, while [D]1 and [D]2 are the concentrations of drugs in combination that would produce the same level of effect.
(§7) Theoretically, additivity is implied if the CI is equal to one, synergy if the CI is less than one, and antagonism if the CI is greater than one. […] At best, we can construct a range that contains the likely values for the CI, given the noise in the data. In this report, these ranges are reported in parentheses next to each point estimate of the CI. […] If the range fell entirely above 1.0, we would infer antagonistic behavior. If the range were to include 1.0, we would infer additivity.
(§8) In carrying out the combination experiments below, the EC50 for Compound 1 and each comparator compound was determined during the course of each study, and used in the subsequent data analysis.

[2] = system: HIV-1 LAI; experiment: Drug susceptibility assay, MT-2 cells infected with HIV-1 LAI, MTS assay readout (samples involving non-nucleoside RT inhibitors); assay type: cell-based; conditions: for EC50: Human immunodeficiency virus 1, MT2, 120 h, single drug, MT-2 cells, HIV-1 LAI, MOI 0.005, 5 days, MTS assay (non-nucleoside RT inhibitors); for Combination Indices at % HIV Inhibition (Confidence Interval) 50%: 50% HIV inhibition; for Combination Indices at % HIV Inhibition (Confidence Interval) 50% / Combination Indices at % HIV Inhibition (Confidence Interval) 75% / Combination Indices at % HIV Inhibition (Confidence Interval) 90%: MTS readout, 95% CI in parenthesis; for Combination Indices at % HIV Inhibition (Confidence Interval) 75%: 75% HIV inhibition; for Combination Indices at % HIV Inhibition (Confidence Interval) 90%: 90% HIV inhibition; for Overall Result: two-drug combination with Compound 1, all ratios and effect levels, MT-2/HIV-1 LAI, MTS assay
Protocol: as §1, §2, §3, §4, §5, §6, §7, §8

[3] = system: HIV-1 LAI; experiment: microbe, parasite or virus in culture; conditions: for Combination Indices at % HIV Inhibition (Confidence Interval) 50%: 50% HIV inhibition; for Combination Indices at % HIV Inhibition (Confidence Interval) 50% / Combination Indices at % HIV Inhibition (Confidence Interval) 75% / Combination Indices at % HIV Inhibition (Confidence Interval) 90%: 95% CI in parenthesis; for Combination Indices at % HIV Inhibition (Confidence Interval) 75%: 75% HIV inhibition; for Combination Indices at % HIV Inhibition (Confidence Interval) 90%: 90% HIV inhibition
Protocol: as §1, §2, §3, §4, §5, §6, §7, §8

[4] = combination with Compound 1, EC50 ratio 1:1
[5] = combination with Compound 1, EC50 ratio 1:2.5
[6] = combination with Compound 1, EC50 ratio 2.5:1

Row | EC50 [2] | Structure (SMILES) | Combination Indices at % HIV Inhibition (Confidence Interval) 50% [1, 4] | Combination Indices at % HIV Inhibition (Confidence Interval) 75% [1, 4] | Combination Indices at % HIV Inhibition (Confidence Interval) 90% [1, 4] | Combination Indices at % HIV Inhibition (Confidence Interval) 50% [1, 5] | Combination Indices at % HIV Inhibition (Confidence Interval) 75% [1, 5] | Combination Indices at % HIV Inhibition (Confidence Interval) 90% [1, 5] | Combination Indices at % HIV Inhibition (Confidence Interval) 50% [1, 6] | Combination Indices at % HIV Inhibition (Confidence Interval) 75% [1, 6] | Combination Indices at % HIV Inhibition (Confidence Interval) 90% [1, 6] | Combination Indices at % HIV Inhibition (Confidence Interval) 50% [2, 4] | Combination Indices at % HIV Inhibition (Confidence Interval) 75% [2, 4] | Combination Indices at % HIV Inhibition (Confidence Interval) 90% [2, 4] | Combination Indices at % HIV Inhibition (Confidence Interval) 50% [2, 5] | Combination Indices at % HIV Inhibition (Confidence Interval) 75% [2, 5] | Combination Indices at % HIV Inhibition (Confidence Interval) 90% [2, 5] | Combination Indices at % HIV Inhibition (Confidence Interval) 50% [2, 6] | Combination Indices at % HIV Inhibition (Confidence Interval) 75% [2, 6] | Combination Indices at % HIV Inhibition (Confidence Interval) 90% [2, 6] | Overall Result [2] | other results
1 |  | COC[C@@H](c1ccc(C(F)(F)F)cc1)N1CCN(C2(C)CCN(C(=O)c3c(C)ncnc3C)CC2)C[C@@H]1C [Sch-D] | 0.49 (0.43, 0.55) | 0.41 (0.34, 0.49) | 0.36 (0.26, 0.46) | 0.71 (0.62, 0.81) | 0.55 (0.44, 0.65) | 0.44 (0.31, 0.57) | 0.51 (0.45, 0.56) | 0.55 (0.47, 0.63) | 0.61 (0.46, 0.75) |  |  |  |  |  |  |  |  |  |  | EC50 [1]: 0.5 nM; Overall Result [1]: moderate synergistic to synergistic
2 | 1.6 nM | CC(C)Nc1cccnc1N1CCN(C(=O)c2cc3cc(NS(C)(=O)=O)ccc3[nH]2)CC1 [Delavirdine, delavirdine] |  |  |  |  |  |  |  |  |  | 0.11 (0.00, 0.26) | 0.09 (0.02, 0.15) | 0.09 (0.00, 0.21) | 0.32 (0.20, 0.43) | 0.09 (0.08, 0.10) | 0.03 (0.02, 0.03) | 0.28 (0.22, 0.35) | 0.17 (0.14, 0.20) | 0.16 (0.11, 0.35) | Synergistic | Overall Result ([2]; listed as delavirdine): strong synergistic effects
3 |  | CCO/N=C(\c1ccc(Br)cc1)C1CCN(C2(C)CCN(C(=O)c3c(C)cc[n+]([O-])c3C)CC2)CC1 [Sch-C] | 0.63 (0.51, 0.74) | 0.70 (0.52, 0.89) | 0.80 (0.46, 1.13) | 0.49 (0.41, 0.58) | 0.65 (0.49, 0.80) | 0.86 (0.52, 1.19) | 0.24 (0.19, 0.28) | 0.36 (0.27, 0.45) | 0.55 (0.31, 0.79) |  |  |  |  |  |  |  |  |  |  | EC50 [1]: 3 nM; Overall Result [1]: moderate synergistic to synergistic
4 | 0.06 nM | O=C1Nc2ccc(Cl)cc2[C@@](C#CC2CC2)(C(F)(F)F)O1 [Efavirenz, efavirenz] |  |  |  |  |  |  |  |  |  | 0.71 (0.50, 0.91) | 0.64 (0.38, 0.90) | 0.64 (0.22, 1.06) | 0.23 (0.17, 0.29) | 0.23 (0.17, 0.30) | 0.25 (0.12, 0.38) | 0.58 (0.45, 0.70) | 0.47 (0.32, 0.61) | 0.46 (0.23, 0.69) | Synergistic | Overall Result ([2]; listed as efavirenz): strong synergistic effects
5 | 63 nM | Cc1ccnc2c1NC(=O)c1cccnc1N2C1CC1 [Nevirapine, nevirapine] |  |  |  |  |  |  |  |  |  | 0.87 (0.79, 0.94) | 0.80 (0.69, 0.90) | 0.74 (0.58, 0.89) | 0.85 (0.74, 0.96) | 0.68 (0.58, 0.79) | 0.55 (0.43, 0.66) | 0.71 (0.62, 0.81) | 0.63 (0.52, 0.73) | 0.56 (0.42, 0.70) | Synergistic | Overall Result ([2]; listed as nevirapine): strong synergistic effects
6 |  | O=c1[nH]cnc2c1ncn2[C@H]1CC[C@@H](CO)O1 [Didanosine, didanosine] |  |  |  |  |  |  |  |  |  |  |  |  |  |  |  |  |  |  |  | EC50 ([3]; Human immunodeficiency virus 1, MT2, 120 h): 1800 nM; Combination Indices at % HIV Inhibition (Confidence Interval) 50% ([3]; combination with Compound 1, EC50 ratio 1:1 (Compound 1:comparator)): 1.29 (1.18, 1.40); Combination Indices at % HIV Inhibition (Confidence Interval) 75% [3, 4]: 0.69 (0.60, 0.78); Combination Indices at % HIV Inhibition (Confidence Interval) 90% [3, 4]: 0.37 (0.29, 0.44); Combination Indices at % HIV Inhibition (Confidence Interval) 50% [3, 5]: 0.53 (0.46, 0.60); Combination Indices at % HIV Inhibition (Confidence Interval) 75% [3, 5]: 0.32 (0.26, 0.38); Combination Indices at % HIV Inhibition (Confidence Interval) 90% [3, 5]: 0.19 (0.13, 0.25); Combination Indices at % HIV Inhibition (Confidence Interval) 50% [3, 6]: 0.95 (0.74, 1.17); Combination Indices at % HIV Inhibition (Confidence Interval) 75% [3, 6]: 0.69 (0.48, 0.90); Combination Indices at % HIV Inhibition (Confidence Interval) 90% [3, 6]: 0.50 (0.26, 0.74)
